Source: patent publication US20240384268A1, “Oligonucleotides” (Hudson Institute of Medical Research, priority 2021, published 2024)
In the oligonucleotide strings, read from the 5' end, every base follows the letter of its sugar. An asterisk marks phosphorothioate; unmarked linkages are phosphodiester. Other units and linkages are bracketed, terminal groups are in braces. A string of capitals states the bases alone. d = 2'-deoxy (DNA); m = 2'-O-methyl

Columns and labels:
human TLR7 = molecular target: T1, human TLR7 (Homo sapiens, UniProt Q9NYK1); test: HEK-TLR7 NF-κB-luciferase reporter, R848 stimulation; assay type: cell-based; conditions: for TLR7 100 nM (averaged NF-κB-Luciferase level relative to R848 condition): ASO 100 nM; for TLR7 100 nM (averaged NF-κB-Luciferase level relative to R848 condition) / TLR7 500 nM (averaged NF-κB-Luciferase level relative to R848 condition): relative to R848 only, given as fraction; for TLR7 500 nM (averaged NF-κB-Luciferase level relative to R848 condition): ASO 500 nM; for TLR7-100 nM: averaged NF-κB-Luciferase relative to R848: 100 nM ASO, percentage of R848 without ASO (Alharbi et al., 2020)
T1 construct: HA; host or cells: 293XL-hTLR7-HA (HEK293)
T1 sequence (Q9NYK1 27-1049): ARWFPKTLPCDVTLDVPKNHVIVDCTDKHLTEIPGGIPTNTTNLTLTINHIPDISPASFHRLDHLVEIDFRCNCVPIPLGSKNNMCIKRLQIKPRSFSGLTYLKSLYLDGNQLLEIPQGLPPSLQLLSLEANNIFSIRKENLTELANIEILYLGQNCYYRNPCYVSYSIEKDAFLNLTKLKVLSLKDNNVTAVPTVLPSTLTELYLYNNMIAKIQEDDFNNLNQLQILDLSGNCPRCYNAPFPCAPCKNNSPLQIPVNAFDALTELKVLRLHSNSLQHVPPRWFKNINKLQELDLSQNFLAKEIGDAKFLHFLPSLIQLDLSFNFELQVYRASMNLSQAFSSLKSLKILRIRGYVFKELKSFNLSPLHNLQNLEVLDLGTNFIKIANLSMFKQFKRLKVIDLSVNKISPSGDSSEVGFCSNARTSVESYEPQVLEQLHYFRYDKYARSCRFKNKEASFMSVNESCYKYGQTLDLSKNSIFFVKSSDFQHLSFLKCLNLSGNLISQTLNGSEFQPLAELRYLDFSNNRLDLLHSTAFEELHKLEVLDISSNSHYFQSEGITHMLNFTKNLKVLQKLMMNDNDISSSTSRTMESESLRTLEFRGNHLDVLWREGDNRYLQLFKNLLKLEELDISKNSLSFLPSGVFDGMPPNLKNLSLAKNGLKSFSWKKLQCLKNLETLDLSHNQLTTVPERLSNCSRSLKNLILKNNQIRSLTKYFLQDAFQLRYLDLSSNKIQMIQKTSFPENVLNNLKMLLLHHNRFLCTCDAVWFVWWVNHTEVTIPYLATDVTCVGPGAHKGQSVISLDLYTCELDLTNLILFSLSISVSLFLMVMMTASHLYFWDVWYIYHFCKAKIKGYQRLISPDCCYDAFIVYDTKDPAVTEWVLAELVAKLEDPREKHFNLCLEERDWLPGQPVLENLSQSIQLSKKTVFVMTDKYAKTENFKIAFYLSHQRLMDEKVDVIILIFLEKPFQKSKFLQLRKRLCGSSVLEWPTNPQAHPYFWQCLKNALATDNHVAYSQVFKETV

cGAS = cGAS (Homo sapiens, UniProt Q8N884); test: ISD70-driven IP-10 production in MG-63 cells; assay type: cell-based; set-up: endogenous in cells; conditions: indicated concentrations up to 500 nM, ~30 min, ISD overnight (FIG. 24)
Sequence of cGAS (Q8N884 whole entry): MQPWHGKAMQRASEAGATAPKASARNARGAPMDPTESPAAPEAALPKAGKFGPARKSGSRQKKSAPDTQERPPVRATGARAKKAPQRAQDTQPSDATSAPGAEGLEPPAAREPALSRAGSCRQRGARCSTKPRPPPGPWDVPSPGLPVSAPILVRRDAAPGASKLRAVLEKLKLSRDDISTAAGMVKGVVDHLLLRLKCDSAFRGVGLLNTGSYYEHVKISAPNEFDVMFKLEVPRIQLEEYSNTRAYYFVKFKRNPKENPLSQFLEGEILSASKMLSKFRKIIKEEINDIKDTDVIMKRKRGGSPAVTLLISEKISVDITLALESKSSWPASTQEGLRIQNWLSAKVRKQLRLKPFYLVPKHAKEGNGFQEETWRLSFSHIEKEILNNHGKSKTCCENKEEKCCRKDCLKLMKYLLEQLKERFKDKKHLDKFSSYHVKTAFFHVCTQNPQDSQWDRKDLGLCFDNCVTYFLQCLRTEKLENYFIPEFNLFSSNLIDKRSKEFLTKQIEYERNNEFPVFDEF

Substance	TLR7-100 nM: averaged NF-κB-Luciferase relative to R848 (human TLR7; HEK-TLR7) [%]	also measured
CGCTTTTCTGTCTGGT (antisense; LNA-modified, pattern not given here) [CTNN2B-311 LNA KL]	–	TLR7 100 nM (averaged NF-κB-Luciferase level relative to R848 condition) (human TLR7): 0.393; TLR7 500 nM (averaged NF-κB-Luciferase level relative to R848 condition) (human TLR7): 0.142; IP-10 after ISD in MG-63, MOE and LNA ASOs (in words) (cGAS): did not inhibit IP-10 production
TGTCTGGAAGCTTCCT (antisense; LNA-modified, pattern not given here) [CTNN2B-808 LNA V1]	–	TLR7 100 nM (averaged NF-κB-Luciferase level relative to R848 condition) (human TLR7): 0.495; TLR7 500 nM (averaged NF-κB-Luciferase level relative to R848 condition) (human TLR7): 0.278
TTCAGGCGCTGCCTTG (antisense; LNA-modified, pattern not given here) [CAMSAP1-2709 LNA V1]	–	TLR7 100 nM (averaged NF-κB-Luciferase level relative to R848 condition) (human TLR7): 0.642; TLR7 500 nM (averaged NF-κB-Luciferase level relative to R848 condition) (human TLR7): 0.181
mA*mA*mA*mG*mC*A*G*T*C*T*C*C*A*T*G*mU*mC*mC*mC*mA (mA*mA*mA*mG*mC*dA*dG*dT*dC*dT*dC*dC*dA*dT*dG*mU*mC*mC*mC*mA; antisense) [[CDKN2B-AS1]2237]	27.16	–
mA*mA*mG*mC*mA*G*T*C*T*C*C*A*T*G*T*mC*mC*mC*mA*mG (mA*mA*mG*mC*mA*dG*dT*dC*dT*dC*dC*dA*dT*dG*dT*mC*mC*mC*mA*mG; antisense) [[CDKN2B-AS1]2236]	35.69	–
mA*mG*mC*mA*mG*T*C*T*C*C*A*T*G*T*C*mC*mC*mA*mG*mG (AGCAGTCTCCATGTCCCAGG; antisense; sugars from the 5' end m5 d10 m5, all phosphorothioate, methylation of C not given here) [[CDKN2B-AS1]2235]	25.50	–
mA*mG*mU*mC*mU*C*C*A*T*G*T*C*C*C*A*mG*mG*mC*mC*mU (mA*mG*mU*mC*mU*dC*dC*dA*dT*dG*dT*dC*dC*dC*dA*mG*mG*mC*mC*mU; antisense) [[CDKN2B-AS1]2232]	35.77	–
mA*mG*mU*mG*mG*C*A*C*A*T*A*C*C*A*C*mA*mC*mC*mC*mU (AGUGGCACATACCACACCCU; antisense; sugars from the 5' end m5 d10 m5, all phosphorothioate, methylation of C not given here) [[CDKN2B-AS1]495]	41.95	–
mA*mU*mU*mU*mC*C*A*C*A*T*G*C*C*C*A*mG*mU*mG*mU*mU (AUUUCCACATGCCCAGUGUU; antisense; sugars from the 5' end m5 d10 m5, all phosphorothioate, methylation of C not given here) [[CDKN2B-AS1]626]	32.05	–
mC*mA*mG*mU*mC*T*C*C*A*T*G*T*C*C*C*mA*mG*mG*mC*mC (mC*mA*mG*mU*mC*dT*dC*dC*dA*dT*dG*dT*dC*dC*dC*mA*mG*mG*mC*mC; antisense) [[CDKN2B-AS1]2233]	47.75	–
mC*mA*mG*mU*mG*T*T*T*T*T*A*A*T*T*T*mU*mG*mU*mA*mG (mC*mA*mG*mU*mG*dT*dT*dT*dT*dT*dA*dA*dT*dT*dT*mU*mG*mU*mA*mG; antisense) [[CDKN2B-AS1]613]	62.68	–
mC*mU*mU*mG*mU*G*A*A*A*A*G*A*T*T*A*mU*mC*mU*mU*mC (mC*mU*mU*mG*mU*dG*dA*dA*dA*dA*dG*dA*dT*dT*dA*mU*mC*mU*mU*mC) [[CDKN2B-AS1]2139]	85.33	inhibition of R848 sensing by TLR7, short pre-treatment (in words) (human TLR7; HEK-TLR7, 100-500 nM oligo 20-50 min before R848 1 μg/ml): did not inhibit TLR7
mG*mC*mA*mG*mU*C*T*C*C*A*T*G*T*C*C*mC*mA*mG*mG*mC (GCAGUCTCCATGTCCCAGGC; antisense; sugars from the 5' end m5 d10 m5, all phosphorothioate, methylation of C not given here) [[CDKN2B-AS1]2234]	20.30	–
mG*mU*mC*mU*mC*C*A*T*G*T*C*C*C*A*G*mG*mC*mC*mU*mC (mG*mU*mC*mU*mC*dC*dA*dT*dG*dT*dC*dC*dC*dA*dG*mG*mC*mC*mU*mC) [[CDKN2B;AS1]2231]	23.75	–
mG*mU*mG*mU*mC*C*T*T*C*A*T*G*C*T*T*mU*mG*mG*mA*mU (GUGUCCTTCATGCTTUGGAU; antisense; sugars from the 5' end m5 d10 m5, all phosphorothioate, methylation of C not given here) [[CDKN2B-AS1]1415]	18.05	–
mG*mU*mG*mU*mU*T*T*T*A*A*T*T*T*T*G*mU*mA*mG*mA*mG (mG*mU*mG*mU*mU*dT*dT*dT*dA*dA*dT*dT*dT*dT*dG*mU*mA*mG*mA*mG) [[CDKN2B-AS1]611]	23.63	–
mU*mA*mU*mU*mU*C*C*A*C*A*T*G*C*C*C*mA*mG*mU*mG*mU (mU*mA*mU*mU*mU*dC*dC*dA*dC*dA*dT*dG*dC*dC*dC*mA*mG*mU*mG*mU; antisense) [[CDKN2B-AS1]627]	30.54	–
